# Results: patent publication US9260461B2, “Water-soluble derivatives and prodrugs of acacetin and methods of making and using thereof” (Versitech Limited, priority 2014, dated 2016)
# Columns and labels:
# [1] = Solubility of the purified prodrugs versus parent compound acacetin; format: physicochemical; conditions: aqueous buffer; Tris solution, pH=7.0; read-out: solubility in Tris solution
# Description: Prodrug B: Light yellow solid. Yield 54%. C16H11O7PNa2 (408.21). EI-MS: m/z 387.04 [M+H—Na]^+. ^1H NMR (400 MHz, DMSO-d6): δ=12.90 (s, 1H), 8.04 (d, J=8.8 Hz, 2H), 7.10 (d, J=8.8 Hz, 2H), 7.02 (s, 1H), 6.98 (s, 1H), 6.60 (s, 1H), 3.89 (s, 3H) ppm.
# [2] = system: ventricular arrhythmias induced by ischemia-reperfusion injury; experiment: Ischemia-reperfusion model in anesthetized rats (ventricular arrhythmias, heart rate, left ventricular contractile function); format: in vivo, Sprague-Dawley (SD) rats; conditions: for incidence of severe ventricular fibrillation: 90% in vehicle, P<0.05
# Method: Adult male Sprague-Dawley (SD) rats (250-300 g) were anesthetized with pentobarbital (30 mg/kg i.p.), supplemented during the experiment when needed. The animal was intubated and ventilated. Body temperature was maintained at 37° C. with a temperature control system. The jugular vein was cannulated for drug administration and a plastic tubing (0.8 mm OD) was introduced into the left ventricle through the […] to measure the contractile function (e.g. left ventricular pressure). The left chest was opened under ventilation to expose the coronary artery. A fine silk was introduced at the upper ⅓ left anterior coronary descending artery (LA). After a 10-min stabilization period, the drug at 5, 10, or 20 mg/kg was intravenously administrated respectively in 5 min, and an equal volume (1 mL/kg) of vehicle was administrated for the control. LAD was then ligated for 10 min followed a 30-min reperfusion. ECG and blood pressure signals were continuously monitored and stored on an IBM compatible PC computer using a multiple channels data acquisition system (RM-6280C, Chengdu Instrument Ltd, Chendu, China) to record the incidence of ventricular arrhythmia (i.e. fibrillation, tachycardia, and premature beats) and […].
# To investigate the effects of water-soluble Prodrug A on ventricular arrhythmias induced by ischemia-reperfusion injury, the in vivo ischemia-reperfusion model was established in SD rats. In this model, the animal, ventricular arrhythmias, including premature ventricular beats (PVBs), and ventricular tachycardia (VT), were developed with 10 min ischemia (ligation of coronary anterior descending artery) followed by […]. Ventricular fibrillation was frequently observed during the early reperfusion in the control animal with intravenous vehicle (FIG. 1A), but not in the animal treated with intravenous Prodrug A (10 mg/kg for 5 min, FIG. 1B). Prodrug A at 5 mg, 10, and 20 mg/kg decreased arrhythmia score (FIG. 1C) and arrhythmia duration in a dose-dependent manner (P<0.05 or P<0.01 vs. vehicle).
# In addition to the anti-ventricular fibrillation, Prodrug A prevented heart rate reduction (FIG. 2A), and improved the decreased function contractile function including left ventricular systolic pressure (FIG. 2B), development pressure (FIG. 2C), and +dP/dT (FIG. 2D) induced by ischemia and/or reperfusion injury in a dose-dependent manner (P<0.05 or P<0.01 vs. vehicle).
# [3] = target: T1, Kv1.5 current (hKV1.5 gene expressed in HEK 293 cells) (Homo sapiens, UniProt P22460); experiment: Whole-cell patch-clamp, Kv1.5 current in HEK 293 cells; format: cell-based; conditions: 30 μM, representative cells
# T1 construct: expressed in transfected cells
# Method: HEK 293 cell line stably expressing the hKV1.5 gene (Wu et al., 2011) or hKv4.3 gene (Wu et al., 2013) was maintained in Dulbecco's modified eagle's medium (DMEM, Invitrogen, Hong Kong) supplemented with 10% fetal bovine serum and 400 μg/mL G418 in a 5% CO2 incubator. Cells were seeded on a glass cover slip for electrophysiology recording.
# Ionic currents in HEK 293 cell lines and rat atrial myocytes were measured by the standard whole-cell patch-clamp technique using a standard pipette and bath solution with an EPC-10 amplifier and Pulse software (HEKA, Lambrecht, Germany). A 3M KCl-agar salt bridge was used as the reference electrode. The current signal was sampled at 5 kHz, recorded and stored in the hard disk of an IBM compatible computer. All experiments were conducted at room temperature (22-23° C.).
# However, Kv1.5 current (FIG. 3D), Kv4.3 current (FIG. 3E) or IKACh (FIG. 3F) was inhibited by 10 μM acacetin in representative cells consistent with experimental reports.
# [4] = In vivo conversion of prodrugs to acacetin, HPLC of blood samples from anesthetized rats; design: species or system SD rats
# Method: Male SD rats (250-300 g) was anesthetized with phenobarbital (30 mg/kg, i.p.), and the jugular vein and femoral vein were cannulated for drug administration and blood sample collection. Tracheal cannulation was also performed for ventilation. Drug (20 mg/kg) was administrated for 30-60 min, and blood samples (˜0.2 mL) were collected before and at 5, 15, 30, 60, 90, and 120 min after drug administration using ascorbic acid and EDTA-preserved microcentrifuge tubes (1.5 mL) for HPLC (high-performance liquid chromatography) analysis of acacetin conversion.
# The samples were stored in a −80° C. freezer until HPLC analysis for acacetin content. Except for the double blanks, pentamethylquercetin (500 ng/mL) was used for concentration calibration. The analysis was carried out on a Waters HPLC system (Milford, Mass.) equipped with an Alltech column (C18, 250 mm×4.6 mm i.d., 5 μm, Grace, Deerfield, Ill.). The mobile phase consisted of 45% acetonitrile in 1% of acetic acid. The UV detector was set at a single wavelength of 260 nm. The lower limit of quantification was 50 ng/mL.
# The in vivo conversion of water-soluble prodrug A was determined in anesthetized SD rats. Prodrug A (20 mg/kg i.v.) was infused for 30-60 min, and levels of the parent compound acacetin in blood plasma were determined by HPLC analysis.
# [5] = 10 mg and 20 mg/kg, before ligation
# [6] = 5, 10 and 20 mg/kg i.v., dose-dependent, P<0.05 or P<0.01 vs. vehicle
# [7] = i.v., dose-dependent, P<0.05 or P<0.01 vs. vehicle
# T1 sequence (P22460 whole entry): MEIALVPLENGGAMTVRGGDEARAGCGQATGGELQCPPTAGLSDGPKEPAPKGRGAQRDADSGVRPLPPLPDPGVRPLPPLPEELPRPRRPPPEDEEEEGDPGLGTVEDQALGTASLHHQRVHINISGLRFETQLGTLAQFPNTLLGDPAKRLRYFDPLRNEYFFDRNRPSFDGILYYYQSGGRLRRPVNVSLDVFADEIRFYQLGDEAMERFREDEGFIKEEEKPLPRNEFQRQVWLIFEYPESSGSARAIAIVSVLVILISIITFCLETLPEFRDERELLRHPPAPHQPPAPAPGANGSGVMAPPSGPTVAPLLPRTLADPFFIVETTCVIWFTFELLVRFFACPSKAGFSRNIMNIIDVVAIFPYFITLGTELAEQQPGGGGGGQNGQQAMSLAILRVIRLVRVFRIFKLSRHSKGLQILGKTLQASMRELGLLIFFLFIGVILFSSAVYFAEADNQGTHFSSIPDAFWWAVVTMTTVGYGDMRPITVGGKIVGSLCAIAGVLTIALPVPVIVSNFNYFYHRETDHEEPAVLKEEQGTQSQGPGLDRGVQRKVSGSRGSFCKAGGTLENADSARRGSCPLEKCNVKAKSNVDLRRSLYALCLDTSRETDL
structure (smiles),measurement,setting,value
COc1ccc(-c2cc(=O)c3c(O)cc(OP(=O)(O)O)cc3o2)cc1 [Prodrug A],solubility,[1],10000 µg/mL
same,heart rate before coronary artery ligation,[2]; [5],without affecting
same,left ventricular development pressure before coronary artery ligation,[2]; [5],slightly but significantly increased
same,left ventricular systolic pressure before coronary artery ligation,[2]; [5],slightly but significantly increased
same,incidence of severe ventricular fibrillation,[2]; 10 mg/kg i.v.,30%
same,incidence of severe ventricular fibrillation,[2]; 20 mg/kg i.v.,20%
same,arrhythmia duration,[2]; [6],decreased
same,arrhythmia score,[2]; [6],decreased
same,decreased +dP/dT induced by ischemia and/or reperfusion injury,[2]; [7],improved
same,decreased left ventricular development pressure induced by ischemia and/or reperfusion injury,[2]; [7],improved
same,decreased left ventricular systolic pressure induced by ischemia and/or reperfusion injury,[2]; [7],improved
same,heart rate reduction induced by ischemia and/or reperfusion injury,[2]; [7],prevented
same,effect on Kv1.5 current,[3],no inhibitory effect
same,concentrations of acacetin at different time-points after prodrug administration,[4],can reach therapeutic concentrations
